Experimental data: ChEMBL document CHEMBL5236636, “Synthesis, anticancer evaluation, and molecular docking studies of thiazolyl-pyrazoline derivatives” (Bioorg Med Chem Lett, 2023)
Calls of active or inactive are those of the source. The rule behind the calls is not given here.

What was measured:
[1] = system: A-375; test: Antiproliferative activity against human A-375 cells incubated for 24 hrs by MTT assay; format: functional, cell-based; settings: A-375, 24 h
[2] = system: A549; test: Antiproliferative activity against human A549 cells incubated for 24 hrs by MTT assay; format: functional, cell-based; settings: A549, 24 h
[3] = system: A549; test: Antimetastatic activity against human A549 cells assessed as reduction in MMP-2 expression at 100 uM preincubated with SNP for 3 hrs followed by compound addition and measured after 24 hrs by gelatin zymography; format: functional, cell-based
[4] = Cytotoxicity against rabbit articular chondrocytes incubated for 24 hrs by MTT assay; format: toxicity, cell-based, Oryctolagus cuniculus, Chondrocyte
[5] = Selectivity index, ratio of IC50 for rabbit articular chondrocytes to IC50 for human A-375
[6] = system: A-375; test: Antimetastatic activity against human A-375 cells assessed as reduction in MMP-2 expression at 100 uM preincubated with SNP for 3 hrs followed by compound addition and measured after 24 hrs by gelatin zymography; format: functional, cell-based
[7] = system: A549; test: Antimetastatic activity against human A549 cells assessed as reduction in MMP-9 expression at 100 uM preincubated with SNP for 3 hrs followed by compound addition and measured after 24 hrs by gelatin zymography; format: functional, cell-based
[8] = system: A-375; test: Antimetastatic activity against human A-375 cells assessed as reduction in MMP-9 expression at 100 uM preincubated with SNP for 3 hrs followed by compound addition and measured after 24 hrs by gelatin zymography; format: functional, cell-based
[9] = system: A549; test: Antiinflammatory activity against human A549 cells assessed as reduction in COX-2 expression at 100 uM preincubated with SNP for 3 hrs followed by compound addition and measured after 24 hrs by Western blot analysis; format: functional, cell-based
[10] = system: A-375; test: Antiinflammatory activity against human A-375 cells assessed as reduction in COX-2 expression at 100 uM preincubated with SNP for 3 hrs followed by compound addition and measured after 24 hrs by Western blot analysis; format: functional, cell-based
[11] = system: A549; test: Potency index, ratio of erlotinib IC50 to test compound IC50 for human A549 cells; format: functional
[12] = system: A-375; test: Potency index, ratio of erlotinib IC50 to test compound IC50 for human A-375 cells; format: functional

SMILES | IC50 [1] [µM] | IC50 [2] [µM] | Activity [3] | IC50 at 24 h [4] [µM] | Ratio IC50 [5] | Activity [6] | Activity [7] | Activity [8] | Activity [9] | Activity [10] | Ratio IC50 [11] | Ratio IC50 [12]
Clc1ccc(C2CC(c3ccccc3)=NN2c2nc(-c3ccc(Br)cc3)cs2)cc1 (configuration not stated) | 42.8 | 52 | – | – | – | – | – | – | – | – | – | –
COc1ccc(C2=NN(c3nc(-c4ccc(Br)cc4)cs3)C(c3ccc(Br)cc3)C2)cc1 (configuration not stated) | 31.6 | 45.7 | – | – | – | – | – | – | – | – | – | –
COc1ccc(C2=NN(c3nc(-c4ccc(Br)cc4)cs3)C(c3ccc(C)cc3)C2)cc1 (configuration not stated) | 20.1 | 26.1 | inactive | 151 | 7.53 | inactive | inactive | inactive | – | – | – | –
COc1cc(C2CC(c3ccccc3)=NN2c2nc(-c3ccc(Br)cc3)cs2)ccc1OCc1ccccc1 (configuration not stated) | 18.4 | 25.9 | inactive | 357 | 19.4 | inactive | inactive | inactive | Active | Active | – | –
Brc1ccc(-c2csc(N3N=C(c4ccccc4)CC3c3ccc(Br)cc3)n2)cc1 (configuration not stated) | 97.5 | 74.2 | – | – | – | – | – | – | – | – | – | –
COc1ccc(C2=NN(c3nc(-c4ccc(Br)cc4)cs3)C(c3ccc(OCc4ccccc4)c(OC)c3)C2)cc1 (configuration not stated) | 20.6 | 27.3 | inactive | 435 | 21.1 | inactive | inactive | inactive | Active | Active | – | –
COc1ccc(C2CC(c3ccccc3)=NN2c2nc(-c3ccc(Br)cc3)cs2)cc1 (configuration not stated) | 40.5 | 37.4 | – | – | – | – | – | – | – | – | – | –
C#Cc1cccc(Nc2ncnc3cc(OCCOC)c(OCCOC)cc23)c1 [ERLOTINIB] | 25.9 | 34.2 | – | 63.5 | 2.45 | – | – | – | – | – | – | –
COc1ccc(C2=NN(c3nc(-c4ccc(Br)cc4)cs3)C(c3ccc(F)cc3)C2)cc1 (configuration not stated) | 16.1 | 20.3 | inactive | 146 | 9.04 | inactive | inactive | inactive | – | Active | 1.7 | 1.7
COc1ccc(C2=NN(c3nc(-c4ccc(Br)cc4)cs3)C(c3ccc(Cl)cc3)C2)cc1 (configuration not stated) | 55.7 | 47.8 | – | – | – | – | – | – | – | – | – | –
COc1ccc(C2=NN(c3nc(-c4ccc(Br)cc4)cs3)C(c3ccc(OC)cc3)C2)cc1 (configuration not stated) | 45.1 | 51.8 | – | – | – | – | – | – | – | – | – | –
Cc1ccc(C2CC(c3ccccc3)=NN2c2nc(-c3ccc(Br)cc3)cs2)cc1 (configuration not stated) | 103 | 126 | – | – | – | – | – | – | – | – | – | –
